The values that follow come from patent publication US20250340549A1, “BICYCLIC HETEROAROMATIC INHIBITORS OF NICOTINAMIDE N-[…], AND COMPOSITIONS AND USES THEREOF” (President and Fellows of Harvard College, priority 2021, published 2025).

One series in a line: in vitro. As to the method: A master solution was prepared according to the following table.
40 μL of 10 mM NADPH solution was added to each well. The final concentrations of NADPH was 1 mM. The mixture was pre-warmed at 37° C. for 5 minutes. The negative control samples were prepared by replacing NADPH solutions with 40 μL of ultra-pure H2O. The negative control was used to exclude the misleading factor that resulted from instability of chemical itself. Samples with NADPH were prepared in duplicate. Negative controls were prepared in singlet.
The reaction was started with the addition of 4 μL of 200 uM control compound or test compound solutions. […] The reaction was stopped by the addition of 4 volumes of cold acetonitrile with IS (100 nM alprazolam, 200 nM imipramine, 200 nM labetalol and 2 uM ketoprofen). Samples were centrifuged at 3, 220 g for 40 minutes. Aliquot of 90 μL of the supernatant was mixed with 90 μL of ultra-pure H2O and then used for LC-MS/MS analysis.
For metabolite standard samples: 1 μL of 400 uM working solution was added to 89 μL master solution following by adding 400 μL of cold acetonitrile with internal standard (IS) (100 nM alprazolam, 200 nM Imipramine, 200 nM labetalol and 2 uM ketoprofen). Then 10 μL of 10 mM NADPH solution or ultra-pure H2O was added to the mixture. Samples were centrifuged at 3,220 g for 40 minutes to precipitate protein. Aliquots of 90 μL supernatant diluted by 90 μL of water was used for LC-MS/MS analysis.

The nature of series [1]: Mouse PK study (IV and PO) in female C57B16/N. The series is classed as in vivo. To be noted: for Tmax: iv. As to the method:
Doses were freshly prepared on the day of dosing. Vehicle compositions of each dose are listed below. For IV, an appropriate amount of the test article was dissolved in the vehicle with vortexing and/or sonication to achieve a solution with the intended concentration level. For PO, an appropriate amount of the test article was dissolved in the appropriate vehicle; vortex and/or sonication can be used to achieve a solution formulation with the intended concentration level. • IV: 0.5% Tween 80 in saline • PO: 0.2% Tween 80/10% PEG-300 in water. Adjust pH with IN hydrochloric acid to obtain a clear solution
(§1) After dosing, 0.03 mL blood samples were collected from the dorsal metatarsal vein (0.2 mL at final time point via heart puncture) at the following time points: • IV: pre-dose, 0.0833, 0.25, 0.5, 1, 2, 4, 6, 8, 24 hours post dose • PO: pre-dose, 0.25, 0.5, 1, 2, 4, 6, 8, 24 hours post dose
(§2) Blood from each sample was transferred into plastic micro centrifuge tubes with EDTAK2 as an anticoagulant. The blood samples were centrifuged at 4,000 g for 5 minutes at 4° C. to obtain plasma. Samples were immediately frozen in the upright position and stored at −75±15° C. prior to analysis.
Samples were analyzed on a AB Sciex Triple Quad 5500 LC/MS/MS instrument using a Gemini 5 μm C18 110A 150×3 mm column (XBridge BEH C18 2.5 μm 4.6×75 mm in the case of JBSNF-000265) with the following equipment installed.
The mobile phase A was 0.1% formic acid in water, and the mobile phase B was 95% acetonitrile in water (0.1% formic acid), delivered at 0.4 mL/min.
Sample Preparation: The desired serial concentrations of working solutions were achieved by diluting stock solution of analyte with 50% acetonitrile in water solution. 5 μL of working solutions (1, 2, 3, 5, 10, 50, 100, 500, 1000 ng/ml) were added to 5 μL of the blank C57B16/N mouse plasma to achieve calibration standards of 1˜1000 ng/ml (1, 2, 3, 5, 10, 50, 100, 500, 1000 ng/ml) in a total volume of 10 μL. Four quality control samples at 3 ng/mL, 5 ng/mL, 100 ng/mL, and 800 ng/mL for plasma were prepared independently of those used for the calibration curves. These QC samples were prepared on the day of analysis in the same way as calibration standards.
10 μL of standards, 10 μL of QC samples and 10 μL of unknown samples (5 μL of plasma with 5 μL of blank solution) were added to 100 μL of acetonitrile (containing D4-1-MNA 50 ng/mL) for precipitating protein respectively. Then the samples were vortexed for 30 s. After centrifugation at 4 degree Celsius, 4,000 rpm for 15 min, the supernatant was diluted 3 times with water. 10 μL of diluted supernatant (20 μL in the case of JBSNF-000265) was injected into the LC/MS/MS system for quantitative analysis.

Another series concerns 1-MNA. As to the kind of experiment: 1-MNA plasma PK parameters in mouse after dosing with compound. It counts as in vivo. The following applies: plasma 1-MNA, female C57B16/N. The method, then: as §1, §2
Sample Preparation: 1-Methylnicotinamide (1-MNA): The desired serial concentrations of working solutions were achieved by diluting stock solution of analyte with 50% acetonitrile in water solution. 5 μL of working solutions (1, 2, 3, 5, 10, 50, 100, 500, 1000 ng/mL) were added to 5 μL of water to achieve calibration standards of 1˜1000 ng/ml (1, 2, 3, 5, 10, 50, 100, 500, 1000 ng/ml) in a total volume of 10 μL. Four quality control samples at 3 ng/ml, 5 ng/mL, 100 ng/mL, and 800 ng/ml for water were prepared independently of those used for the calibration curves. These QC samples were prepared on the day of analysis in the same way as calibration standards.
10 μL of standards, 10 μL of QC samples and 10 μL of unknown samples (5 μL of plasma with 5 μL of blank solution) were added to 100 μL of acetonitrile (containing D4-1-MNA 100 ng/mL) for precipitating protein respectively. Then the samples were vortexed for 30 s. After centrifugation at 4 degree Celsius, 4000 rpm for 15 min, the supernatant was diluted 3 times with water. 5 μL of diluted supernatant was injected into the LC/MS/MS system for quantitative analysis.

In another series the target is T1, recombinant human NNMT (Homo sapiens, UniProt P40261).
T1 sequence (P40261 1-264): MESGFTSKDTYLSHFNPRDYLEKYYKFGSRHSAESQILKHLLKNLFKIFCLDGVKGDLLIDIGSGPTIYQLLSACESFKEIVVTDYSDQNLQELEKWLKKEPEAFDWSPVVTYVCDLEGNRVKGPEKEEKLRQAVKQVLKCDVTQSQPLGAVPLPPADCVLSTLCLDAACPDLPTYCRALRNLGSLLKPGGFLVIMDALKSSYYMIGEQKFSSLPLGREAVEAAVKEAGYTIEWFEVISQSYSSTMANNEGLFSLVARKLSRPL
Briefly: In vitro NNMT enzyme inhibition assay (Promega MTase-Glo Methyltransferase Assay). It counts as biochemical. The following applies: compared with compound 1. The method, then: NNMT biochemical activity for was evaluated for compound 1 (FIG. 1), compound 2 (FIG. 2), compound 6 (FIG. 3), compound 8 (FIG. 4), compound 14 (FIG. 5), compound 16 (FIG. 6), and compound 13 (FIG. 12), using the Promega Mtase-Glo Methyltransferase Assay kit. Compounsd 4A (FIG. 7) and 4B (FIG. 8) were also tested in the assay.
Assays were performed in a white, flat-bottomed 96 well plate. […] Reactions were performed for 20 minutes at room temperature. MTase-Glo reagent and MTase-Glo detection solution were added according to manufacturer's instructions and luminescence signal measured with a SpectraMax i3 plate reader and data analyzed with GraphPad Prism version 9. Scheme 10 depicts a visual summary of the Promega MTase-Glo Methyltransferase assay used to assess biochemical activity of novel inhibitors.

[2] abbreviates: mouse, plasma, 1 mg/kg (Table 5B, title: IV Dosage).
The mark [3] stands for this setting: mouse, plasma, 10 mg/kg (Table 5B, title: IV Dosage).
Where [4] appears, read: mouse, plasma, 50 mg/kg (Table 5B, title: IV Dosage).

The structures appear in SMILES notation. A value given as a limit tells only on which side of the number the result lay.

Turning to `CNc1cc2ccnc(N)c2cn1` [Compound 1], the “Predicted hepatic CL” value in the series “in vitro” (human, 2 uM) is less than 5.12 mL/min/kg; in the series “in vitro” (male, mouse, 2 uM) it was 50.12 mL/min/kg. For the same compound, the CLint scaled at 2 uM in the series “in vitro” (human, microsomes) was less than 6.79 mL/min/kg; in “in vitro” (male, mouse, microsomes), 113 mL/min/kg. In addition, the half-life at 2 uM was more than 256 min in the series “in vitro” (human, microsomes) and 53.6 min in the series “in vitro” (male, mouse, microsomes). Further, the microsomal CLint at 2 uM in “in vitro” (human, microsomes) is less than 5.42 µL/min/mg; in the series “in vitro” (male, mouse, microsomes), 25.9 µL/min/mg. The “Remaining (%) at 60 minutes” value was determined as 86.23% in “in vitro” (human, microsomes, 1 h, 2 uM) and 46.35% in the series “in vitro” (male, mouse, microsomes, 1 h, 2 uM). In addition, in the series “in vitro” (male, C57B16/N, mouse, microsomes, 1 h, 2 uM), the “% Q (mice): percent of compound remaining after 60 minutes of exposure to liver microsomes” value was determined as 46.35%. In addition, in “in vitro” (microsomes, 1 h, 2 uM), the “% Q (human): percent of compound remaining after 60 minutes of exposure to liver microsomes” value stood at 86.23%. For the same compound, the “AUC% Extrap—obs” value in series [1] (3 mg/kg IV) was found to be 0.666%. The compound further returned an AUClast/D in series [1] (3 mg/kg IV) of 97 ng·h/mL per mg/kg. Further, in series [1] (3 mg/kg IV), the Cl_obs was found to be 173 mL/min/kg. The results for the F in series [1] (10 mg/kg) and in series [1] (50 mg/kg) were 10.3% and 32.4%, respectively. In addition, the AUC(0-t) was determined as 97 ng·h/mL in series [1] (setting [2]); 290 ng·h/mL in series [1] (mouse, plasma, 3 mg/kg IV); 96.4 ng·h/mL in series [1] (setting [3]); 1540 ng·h/mL in series [1] (setting [4]). Further, the Cmax in series [1] (setting [2]) is 3.66 ng/mL; in series [1] (setting [3]), 145 ng/mL; in series [1] (setting [4]), 1350 ng/mL. The half-life was 255 min in series [1] (setting [2]); 25.5 min in series [1] (mouse, plasma, 3 mg/kg IV); 143 min in series [1] (setting [3]); 473 min in series [1] (setting [4]). This compound displayed an AUC(0-inf) in series [1] (mouse, plasma, 3 mg/kg IV) of 292 ng·h/mL. This compound returned a C0 in series [1] (mouse, plasma, 3 mg/kg IV) of 864 ng/mL. Besides, the MRT inf in series [1] (mouse, plasma, 3 mg/kg IV, read-out: MRTInf—obs) turned out to be 20.8 min. Besides, the Tmax is 15 min in series [1] (mouse, plasma, 10 mg/kg) and 20 min in series [1] (mouse, plasma, 50 mg/kg). Also, the “AUClast of 1-MNA” value worked out at 1463 ng·h/mL in the series on 1-MNA (3 mg/kg IV), 934 ng·h/mL with 1-MNA (10 mg/kg PO) and 814 ng·h/mL with 1-MNA (50 mg/kg PO).
As to `CNc1cc2cc[nH]c(=O)c2cn1`, the “activity in the enzyme assay (in words)” value on recombinant human NNMT is “substrate (not inhibitor)”.
For `CNc1cc2ccncc2cn1`, the “activity in the enzyme assay (in words)” value at recombinant human NNMT is “significantly less active”.
